# Experiments:
# Conditions in all cases: 72 h
# Caco-2 [1] = assay: cell viability relative to DMSO; higher = less toxic
# Calu-3 [2] = assay: as above
# HepG2 [3] = assay: as above
# U2OS [4] = assay: as above
# Vero E6 [5] = assay: as above
# Caco-2 [6] = assay: relative viability EC50 (midpoint between 100% and the lowest measured viability); higher = less toxic
# Calu-3 [7] = assay: as above
# HepG2 [8] = assay: as above
# U2OS [9] = assay: as above
# Caco-2 [10] = assay: drug sensitivity score (DSS) for viability; higher = more toxic; extreme values may be limits of the assay
# Calu-3 [11] = assay: as above
# HepG2 [12] = assay: as above
# U2OS [13] = assay: as above
# Vero E6 [14] = assay: as above
# Vero E6 [15] = assay: relative viability EC50 (midpoint between 100% and the lowest measured viability); higher = less toxic
Compound,cell viability (Caco-2 [1]; 1 nM) [%],cell viability (Caco-2 [1]; 10 nM) [%],cell viability (Caco-2 [1]; 100 nM) [%],cell viability (Caco-2 [1]; 1000 nM) [%],cell viability (Caco-2 [1]; 10000 nM) [%],cell viability (Calu-3 [2]; 1 nM) [%],cell viability (Calu-3 [2]; 10 nM) [%],cell viability (Calu-3 [2]; 100 nM) [%],cell viability (Calu-3 [2]; 1000 nM) [%],cell viability (Calu-3 [2]; 10000 nM) [%],cell viability (HepG2 [3]; 1 nM) [%],cell viability (HepG2 [3]; 10 nM) [%],cell viability (HepG2 [3]; 100 nM) [%],cell viability (HepG2 [3]; 1000 nM) [%],cell viability (HepG2 [3]; 10000 nM) [%],cell viability (U2OS [4]; 1 nM) [%],cell viability (U2OS [4]; 10 nM) [%],cell viability (U2OS [4]; 100 nM) [%],cell viability (U2OS [4]; 1000 nM) [%],cell viability (U2OS [4]; 10000 nM) [%],cell viability (Vero E6 [5]; 1 nM) [%],cell viability (Vero E6 [5]; 10 nM) [%],cell viability (Vero E6 [5]; 100 nM) [%],cell viability (Vero E6 [5]; 1000 nM) [%],cell viability (Vero E6 [5]; 10000 nM) [%],relative viability EC50 (Caco-2 [6]) [µM],relative viability EC50 (Calu-3 [7]) [µM],relative viability EC50 (HepG2 [8]) [µM],relative viability EC50 (U2OS [9]) [µM],drug sensitivity score (Caco-2 [10]),drug sensitivity score (Calu-3 [11]),drug sensitivity score (HepG2 [12]),drug sensitivity score (U2OS [13]),drug sensitivity score (Vero E6 [14]),relative viability EC50 (Vero E6 [15]) [µM]
O=C1C(O)=C([C@H]2CC[C@H](c3ccc(Cl)cc3)CC2)C(=O)c2ccccc21 [atovaquone],94.6,103,104,102,95.9,102,107,92.2,102,108,99.4,90.2,94.8,98.9,107,96.8,98.3,96.5,96.4,92.8,95.2,101,101,99.2,66.3,> 10,> 10,> 10,> 10,0,0,0,0,1.7,–
CCOC(=O)NNc1ccc(N(CC)CC(C)O)nn1 (configuration not stated) [cadralazine],110,97.4,100,102,102,104,96.3,91.6,88.1,101,95.6,103,97.9,96.6,106,–,–,–,–,–,105,100,94.8,100,95.2,> 10,> 10,> 10,–,0,0,0,–,0,> 10
CCC(=O)c1ccc(OCC(O)CN2CCN(c3ccccc3)CC2)cc1 (configuration not stated) [centpropazine],96.8,92.8,94.6,93.1,98.4,–,–,–,–,–,120,112,106,101,90,100,103,99.3,106,97.3,–,–,–,–,–,> 10,–,> 10,> 10,0,–,0,0,–,–
O=C(C(c1ccccc1)c1ccccc1)N1CCN(CC(O)COc2cccc3ncccc23)CC1 (configuration not stated) [dofequidar],102,99.9,94.7,103,86.3,90.5,97.8,109,129,104,95.7,104,105,105,102,97.4,102,94.2,102,93.8,–,–,–,–,–,> 10,> 10,> 10,> 10,0.1,0,0,0,–,–
CCOC(CN1CCN(CC(C)C(=O)c2ccccc2)CC1)c1ccccc1 (configuration not stated) [eprazinone],102,98.9,110,95.4,98.2,96,96.9,95.6,93,90.8,111,96.7,102,98.9,99.6,98.8,95.8,95.8,95.2,98.7,–,–,–,–,–,> 10,> 10,> 10,> 10,0,0,0,0,–,–
O=C(/C=C/c1c(C(=O)O)[nH]c2cc(Cl)cc(Cl)c12)Nc1ccccc1 [gavestinel],102,104,91,99.6,104,90.4,98.8,89.3,99.2,107,94.5,112,92.9,105,101,101,99.2,100,101,100,–,–,–,–,–,> 10,> 10,> 10,> 10,0,0,0,0,–,–
COC1=C2C[C@@H](C)C[C@H](OC)[C@H](O)[C@@H](C)/C=C(\C)[C@H](OC(N)=O)[C@@H](OC)/C=C\C=C(/C)C(=O)NC(=CC1=O)C2=O [geldanamycin],106,95.9,95.1,56.9,29.2,99,107,103,68,35.4,101,105,106,1.2,1,100,101,93.6,24.2,3,97.1,102,98,98.1,65.9,0.716,1.01,0.35,0.474,9.2,7.6,17.3,15,1.8,–
O=C1Nc2ccccc2/C1=C1/Nc2ccccc2C1=O [indirubin],101,100,109,94.8,105,116,104,109,93.1,119,110,110,97.8,94,93.6,–,–,–,–,–,101,96.4,97.5,97.7,98.1,> 10,> 10,> 10,–,0,0,0,–,0,> 10
C=C1c2cccc(O)c2C(=O)C2=C(O)[C@]3(O)C(=O)C(C(N)=O)=C(O)[C@@H](N(C)C)[C@@H]3[C@@H](O)[C@H]12 [methacycline],98.1,95.7,99.7,93.5,95.4,99.3,89.1,100,83,90.7,104,99.9,97.9,96.9,89.9,101,96.9,104,99.9,103,70.6,105,71.4,97.6,63.2,> 10,> 10,> 10,> 10,0,0.3,0,0,5.8,–
O=C(O)C[CH2][Ge](=[O])[O][Ge](=[O])[CH2]CC(=O)O [propagermanium],108,91.4,106,93.4,100,102,105,95.6,99.2,105,104,106,95.3,96.8,88,101,101,99.1,97.1,97.5,–,–,–,–,–,> 10,> 10,> 10,> 10,0,0,0,0,–,–
O=c1ccc2cc3ccoc3cc2o1 [psoralen],96.6,104,101,104,97.9,–,–,–,–,–,110,107,110,96.5,105,101,104,97.8,102,98.9,–,–,–,–,–,> 10,–,> 10,> 10,0,–,0,0,–,–
c1nc2c(NC3CCCCC3)nc(Nc3ccc(N4CCOCC4)cc3)nc2[nH]1 [reversine],99.3,93.6,97.8,84.1,35.2,102,92.4,103,100,73.4,101,89.9,89.2,46.3,27.6,99.9,102,99.4,63.6,23.1,104,98.1,103,65.1,58,1.57,–,0.401,1.04,6,1,11.5,8.9,6.3,–
COc1cnc(NS(=O)(=O)c2ccc(N)cc2)nc1 [sulfameter],106,103,92.7,103,98.8,97.2,96.4,99.3,101,105,102,110,97,99.6,106,96.2,101,94.3,101,97.2,–,–,–,–,–,> 10,> 10,> 10,> 10,0,0,0,0,–,–
CCCSc1nc(N[C@@H]2C[C@H]2c2ccc(F)c(F)c2)c2nnn([C@@H]3C[C@H](OCCO)[C@@H](O)[C@H]3O)c2n1 [ticagrelor],98.1,99.5,98,97.1,86.5,99.9,99.6,101,103,104,107,112,95.9,99.1,89.5,104,96.3,101,103,96.3,–,–,–,–,–,> 10,> 10,> 10,> 10,0.3,0,0,0,–,–
CC(C)C[C@@H](C(=O)N[C@H](C(=O)OC1CCCC1)c1ccccc1)[C@H](O)C(=O)NO [tosedostat],90,105,93.6,88.6,84.1,96.2,101,74.6,69.7,59.8,105,87.8,88.5,80.1,66.7,97.7,103,96.3,98.3,70.9,99.7,99.1,104,102,106,> 10,–,–,–,1.1,8.9,4.6,1.5,0,> 10
Nc1nc(N)c2nc(-c3ccccc3)c(N)nc2n1 [triamterene],104,120,97.8,106,98.8,103,101,93.6,97.9,102,97.9,83.3,85.9,88.7,88.1,102,101,106,108,97.8,97.9,98.2,101,98.6,70.4,> 10,> 10,> 10,> 10,0,0,5.2,0,1.5,–

# — the supplement of paper PMC13380429
